Where two headings read alike, the source gives them in different places.
Assays:
[1] = tested on: Human hepatocellular carcinoma HepG2 cells; experiment: Cell viability (MTS, 72 h); type: cell-based
Procedure: Cell viability was determined from the expression:
The plot was constrained to ≧0 and ≦100%.
Human hepatocellular carcinoma HepG2 and human pancreatic cancer MIA PACA II cells were obtained from ATCC (Rockville, Md.). They were grown in DMEM (high glucose, Invitrogen) supplemented with 10% FBS, 50 μg/mL penicillin and 50 μg/mL streptomycin, 37° C., 5% CO2 until they reached 80-90% confluency, after which they were subcultured. Passage numbers were kept within 7-14 passages for both cell types.

[2] = tested on: MDA-MB-231 human breast cells; experiment: Antiproliferative activity / cell viability (MTS, 72 h); details: Homo sapiens
Procedure: (§1) The relative number of the live cells was determined using the CellTiter® 96 AQueous One Solution Cell Proliferation Assay (Promega). Determinations were made in duplicates or triplicates.
Human breast cancer MDA-MB231, liver cancer HepG2 and lung fibroblast cells were purchased from ATCC (Rockville, Md.). MDA-MB231 cells and IMR-90 cells were grown in DMEM (Sigma Aldrich, Singapore) and EMEM (Sigma Aldrich, Singapore) respectively at 37° C., 5% CO2. DMEM was supplemented with 10% fetal bovine serum (Invitrogen, heat treated at 65 deg C., 30 min), 50 units/L penicillin-G and 50 μg/mL streptomycin. EMEM was supplemented with 10% fetal bovine serum (heat treated as above), 100 mg/L penicillin-G and 100 μg/mL streptomycin.
Cell viability was assessed using CellTitre 96® Aqueous One Solution (Promega, Madison, Wis.) containing the tetrazolium salt 3-(4,5-dimethylthiazol-2-yl)-5-(3-carboxymethoxyphenyl)-2-(4-sulfophenyl)-2H-tetrazolium (MTS). […] Final concentration of DMSO per well was maintained at 0.5% v/v. […] Cell viability was determined from the expression:
The plot was constrained to ≧0 and ≦100%. At least 3 independent determinations of IC50 were made using two different stock solutions of test compound.

[3] = In vitro stability in rat liver microsomes; type: in vitro ADME; details: for Half-life (min) / Intrinsic Clearance (μL/min/mg): NADPH; for half-life / microsomal CLint: male, pooled rat liver microsomes, pH 7.4, NADPH; for microsomal CLint: read-out: Intrinsic Clearance
Procedure: The mixture was preincubated for 5 min at 37° C. in a shaking water bath, after which the reaction was initiated by adding […] of 10 mM NADPH (freshly prepared in phosphate buffer) to give a final concentration of 1 mM NADPH in the mixture. Aliquots of 50 μL were withdrawn immediately on addition of NADPH (time 0) and subsequently at 5, 15, 30 and 45 min. […] The mixture was then centrifuged at 10,000×g to remove the protein and the content of the test compound in the supernatant was subsequently measured by LCMS.
For each test compound, the metabolic stability of a positive control, midazolam (5 μM) which is a known cytochrome P450 substrate, was concurrently determined to evaluate the adequacy of the experimental conditions. The stability of the test compound to microsomal degradation in the absence of NADPH was also monitored.
Separations were made on a C18 column (Luna 3u C18(2) 100A column (2.0×50 mm, i.d., 3 μM, Phenomenex, Aschaffenburg, Germany or Eclipse Plus C18 column, 4.6×150 mm, i.d., 3.5 μM Agilent Technologies, Palo Alto, Calif., USA) with a security guard cartridge (3.0×4 mm, Agilent Technologies, Palo Alto, Calif., USA). Mobile phase was 0.1% formic acid in acetonitrile-water as mobile phase. Flow rate was set at 0.2 or 0.6 mL/min and the column temperature was at 30° or 40° C. 2 or 5 μL full loop sample injection was used.
Data processing was performed with Analyst™ 1.4.2 software package (Applied Biosystems, MA., USA). The corresponding MRM transition of this candidate was selected and used for peak configuration in Analyst 1.4.2 for semi-quantitation. The peak areas of test compound at different time points were expressed as a % of the peak area of test compound at time=0 min. The resulting % of intact (or remaining) test compound (average of 3 measurements with SD) was plotted against incubation time drug (Figure xx). In vitro half life (T1/2, min) was calculated from Equation 3 (Lu C, Li P, Gallegos R, Uttamsingh V, Xia C Q, Miwa G T, et al. Comparison of intrinsic clearance in liver microsomes and hepatocytes from rats and humans: evaluation of free fraction and uptake in hepatocytes. Drug Metab Dispos 2006; 34: 1600-5). T1/2=0.693/k(min) Equation 3: Where k is the slope of the plot Estimated in vitro clearance was determined from Equation 4: CLint, in vitro=V×0.693/T½ Equation 4: where V (μL/mg)=Volume of incubation/amount of microsomal protein in the incubation (μL/mg) Ames Test for Mutagenicity

[4] = tested on: PC3 Prostrate cancer cells; experiment: Antiproliferative activity / cell viability (MTS, 72 h); type: cell-based, human; details: Homo sapiens
Procedure: as §1

[5] = Aggregation tendency by dynamic light scattering (DLS); type: physicochemical; details: for DLS count rate (kcps): 1% DMSO, potassium phosphate buffer 5 mM pH 7.4
Procedure: Stock solutions (10 mM) of test compounds prepared in DMSO, diluted to 1 mM with DMSO and then serially diluted with potassium phosphate buffer (5 mM, pH 7.4, prefiltered before use) to give final concentrations of 1 μM and 10 μM. Final concentration of DMSO was 1% v/v. Measurements were carried out on the Malvern Instrument Zetasizer Nano ZS system equipped with a 4 mW He—Ne laser at 633 nm and detector angle of 90°. Three or more determinations of derived count rates (kilocounts per second, kcps) were obtained from each concentration of test compound, using two separately prepared stock solutions. Data collection was carried out using the software supplied with the instrument. Results are represented as mean±standard deviation. The positive control was benzyl benzoate (250 μM) which gave a count rate of 1180 kcps (±35). The vehicle (phosphate buffer, 1% DMSO) gave a reading of 14.9±0.4.

[6] = HepG2, Table 6, mean (SD), read-out: IC50 (μM) HepG2
[7] = HepG2, further testing, 72 h, mean (SD), read-out: IC50 HepG2
[8] = HepG2, read-out: in vitro IC50 (horizontal line in FIGS. 14 and 15), cell line not stated
[9] = MDA-MB-231, 72 h, read-out: IC50 MDA-MB-231 (μM)
[10] = MDA-MB-231, 72 h, read-out: IC50MDA-MB-231 (μM)
[11] = MDA-MB-231, read-out: IC50 (μM) MDA MB 231
[12] = PC-3M, Table 3, 72 h, mean (SD), read-out: IC50 PC3
[13] = Table 6, from earlier table, read-out: IC50 (μM) PC3

Structure (SMILES) | IC50 [1, 6] | IC50 [1, 7] | IC50 [1, 8] | IC50 [2, 9] | IC50 [2, 10] | IC50 [2, 11] | Half-life (min) [3] | Intrinsic Clearance (μL/min/mg) [3] | half-life [3] | microsomal CLint [3] | IC50 [4, 12] | IC50 [4, 13] | DLS count rate (kcps) ([5]; 1 μM) | DLS count rate (kcps) ([5]; 10 μM) | fold increase in light scattering ([5]; concentration increased from 1 μM to 10 μM)
CCCCCCCCn1cc(CN(CC)CC)c2cc(-c3cnc(N)nc3)ccc21 [Compound 8-12, 5-(3-Diethylaminomethyl-1-octyl-1H-indol-5-yl)-pyrimidin-2-ylamine] | 1.65 µM | 1.65 µM | 1.7 µM | 2.48 µM | 2.63 µM | 2.63 µM | 11.3 (0.4) min | 204.0 (9.0) μL/min/mg | 11.3 min | 204 µL/min/mg | 2.55 µM | 2.55 µM | 24.5 kcps | 53.3 kcps | 2
CCCCCCCCn1c2c(c3cc(-c4cnc(N)nc4)ccc31)CN(C)CC2 [Compound 305, 8-(2′-amino-pyrimidin-5′-yl)-2-methyl-5-n-octyl-1,2,3,4-tetrahydropyrido[4,3-b]indole] |  | 1.73 µM |  | 5.65 µM | 4.61 µM |  |  |  | 31.6 min | 76.6 µL/min/mg | 4.31 µM |  | 21.0 kcps | 29.0 kcps | 
CCCCCCCCn1cc(CC(N)=O)c2cc(-c3cccc(C)c3)ccc21 [Cysmethynil, 2-[5-(3-methylphenyl)-1-octyl-1H-indolo-3-yl]acetamide, reference compound] | 21.8 µM | 21.8 µM | 22 µM | 27.4 µM | 26.8 µM | 27.4 µM | 44.8 (8.0) min | 53.6 (9.0) μL/min/mg | 44.8 min | 53.6 µL/min/mg | 24.8 µM | 25.2 µM | 22.6 kcps | 164.0 kcps | 

From patent US9422238B2, “ICMT inhibitors” (National University of Singapore, priority 2012, dated 2016)
